According to patent publication US10450347B2, “Immunomodulators” (BRISTOL-MYERS SQUIBB COMPANY, priority 2015, dated 2019):
Starred links: 1 amine or outer side, 2 acyl side, 3 side chain; linkers in the order of their positions; H or OH if unused. Positions of bridges follow the written chain, without caps; N, C: chain ends. Non-standard residues stand in square brackets, D forms with d. Residues, ends and D or L forms follow the SMILES beside them. Tyrψ(CN4)Ala = C[C@@H](C(=O)[*:2])n1nnnc1[C@H](Cc1ccc(O)cc1)N[*:1]; X3 = O=C(C[C@@H](CO)C(=O)[*:2])[C@H](Cc1c[nH]c2ccccc12)N[*:1]; X4 = CCCC[C@@H](C(=O)[*:2])n1nnnc1[C@H](Cc1csc2ccccc12)N[*:1]; X5 = C[C@@H](C(=O)[*:2])n1nnnc1[C@H](Cc1ccccc1)N[*:1]; Bta = N[C@@H](Cc1csc2ccccc12)C(=O)O; Hyp = O=C(O)[C@@H]1C[C@@H](O)CN1; NMeNle = CCCC[C@H](NC)C(=O)O; NMeA = CN[C@@H](C)C(=O)O; Orn = NCCC[C@H](N)C(=O)O; Dap = NC[C@H](N)C(=O)O; Sar = CNCC(=O)O

Molecular target: T1, PD-1-Ig/PD-L1-His (Homo sapiens, UniProt Q9NZQ7)
T1 construct: [hPD-L1(19-239)-tobacco vein mottling virus protease cleavage site (TVMV)-His]; made in house; host or cells: HEK293T cells
T1 sequence (Q9NZQ7 with tags, fused parts or gaps): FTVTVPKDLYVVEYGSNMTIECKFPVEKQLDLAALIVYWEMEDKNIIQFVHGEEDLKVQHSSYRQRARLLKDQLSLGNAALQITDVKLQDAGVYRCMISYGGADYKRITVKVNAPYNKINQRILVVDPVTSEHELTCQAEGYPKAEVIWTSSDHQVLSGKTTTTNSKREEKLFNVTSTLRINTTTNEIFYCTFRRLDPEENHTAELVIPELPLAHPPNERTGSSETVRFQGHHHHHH
Test: PD-1/PD-L1 Homogenous Time-Resolved Fluorescence (HTRF) binding assay
Conditions: inhibition of PD-1-Ig binding to PD-L1-TVMV-His
From the text: The ability of the macrocyclic peptides of the present disclosure to bind to PD-L1 was investigated using a PD-1/PD-L1 Homogenous Time-Resolved Fluorescence (HTRF) binding assay.
Homogenous Time-Resolved Fluorescence (HTRF) Assays of Binding of Soluble PD-1 to Soluble PD-L1. Soluble PD-1 and soluble PD-L1 refers to proteins with carboxyl-end truncations that remove the transmembrane-spanning regions and are fused to heterologous sequences, specifically the Fc portion of the human immunoglobuling G sequence (Ig) or the hexahistidine epitope tag (SEQ ID NO: 3) (His). All binding studies were performed in an HTRF assay buffer consisting of dPBS supplemented with 0.1% (w/v) bovine serum albumin and 0.05% (v/v) Tween-20. For the PD-1-Ig/PD-L1-His binding assay, inhibitors were pre-incubated with PD-L1-His (10 nM final) for 15 m in 4 μl of assay buffer, followed by addition of PD-1-Ig (20 nM final) in 1 μl of assay buffer and further incubation for 15 m. PD-L1 fusion proteins from either human, cynomologous macaques, mouse, or other species were used. HTRF detection was achieved using europium crypate-labeled anti-Ig monoclonal antibody (1 nM final) and allophycocyanin (APC) labeled anti-His monoclonal antibody (20 nM final). Antibodies were diluted in HTRF detection buffer and 5 μl was dispensed on top of binding reaction. The reaction was allowed to equilibrate for 30 minutes and signal (665 nm/620 nm ratio) was obtained using an EnVision fluorometer. Additional binding assays were established between PD-1-Ig/PD-L2-His (20 and 5 nM, respectively), CD80-His/PD-L1-Ig (100 and 10 nM, respectively) and CD80-His/CTLA4-Ig (10 and 5 nM, respectively). Binding/competition studies between biotinylated Compound No. 71 and human PD-L1-His were performed as follows. Macrocyclic peptide inhibitors were pre-incubated with PD-L1-His (10 nM final) for 60 minutes in 4 μl of assay buffer followed by addition of biotinylated Compound No. 71 (0.5 nM final) in 1 μl of assay buffer. Binding was allowed to equilibrate for 30 minutes followed by addition of europium crypated labeled Streptavidin (2.5 pM final) and APC-labeled anti-His (20 nM final) in 5 μl of HTRF buffer. The reaction was allowed to equilibrate for 30 m and signal (665 nm/620 nm ratio) was obtained using an EnVision fluorometer.
Recombinant Proteins. Carboxyl-truncated human PD-1 (amino acids 25-167) with a C-terminal human Ig epitope tag [hPD-1 (25-167)-3S-IG] and human PD-L1 (amino acids 18-239) with a C-terminal His epitope tag [hPD-L1(19-239)-tobacco vein mottling virus protease cleavage site (TVMV)-His] were expressed in HEK293T cells and purified sequentially by recombinant Protein A affinity chromatography and size exclusion chromatography. Human PD-L2-His (Sino Biologicals), CD80-His (Sino Biologicals), CTLA4-Ig (RnD Systems) were all obtained through commercial sources.

IC50 (range classes) | IC50 (numeric values) | SMILES
100 to 10000 nM | – | CCCC[C@H]1C(=O)N(C)[C@@H](CCCC)C(=O)N[C@@H](CCCNC(=N)N)C(=O)N[C@H](C(=O)NCC(N)=O)CSCC(=O)N[C@@H](Cc2ccccc2)c2nnnn2[C@@H](C)C(=O)N[C@@H](CC(N)=O)C(=O)N2CCC[C@H]2C(=O)N[C@@H](Cc2cnc[nH]2)C(=O)N[C@@H](CC(C)C)C(=O)N(C)CC(=O)N[C@@H](Cc2c[nH]c3ccccc23)C(=O)N[C@@H](CO)C(=O)N[C@@H](Cc2c[nH]c3ccccc23)C(=O)N1C (single isomer, unassigned) [Example 1001]
– | 200 nM | CCCC[C@H]1C(=O)N(C)[C@@H](CCCC)C(=O)N[C@@H](CCCNC(=N)N)C(=O)N[C@H](C(=O)NCC(N)=O)CSCC(=O)N[C@@H](Cc2ccccc2)c2nnnn2[C@@H](C)C(=O)N[C@@H](CC(N)=O)C(=O)N2CCC[C@H]2C(=O)N[C@@H](Cc2cnc[nH]2)C(=O)N[C@@H](CC(C)C)C(=O)N(C)CC(=O)N[C@@H](Cc2c[nH]c3ccccc23)C(=O)N[C@@H](CO)C(=O)N[C@@H](Cc2c[nH]c3ccccc23)C(=O)N1C (single isomer, unassigned) [Example 1002]
100 to 10000 nM | – | CCCC[C@@H]1C(=O)N[C@@H](CCCNC(=N)N)C(=O)N[C@H](C(=O)NCC(N)=O)CSCC(=O)N[C@@H](Cc2ccccc2)c2cnnn2[C@@H](C)C(=O)N[C@H](CC(N)=O)C(=O)N2CCC[C@H]2C(=O)N[C@@H](Cc2cnc[nH]2)C(=O)N[C@@H](CC(C)C)C(=O)N(C)CC(=O)N[C@@H](Cc2c[nH]c3ccccc23)C(=O)N[C@@H](CO)C(=O)N[C@@H](Cc2c[nH]c3ccccc23)C(=O)N(C)[C@@H](CCCC)C(=O)N1C (single isomer, unassigned) [Example 1003]
100 to 10000 nM | – | CCCC[C@@H]1C(=O)N[C@@H](CCCNC(=N)N)C(=O)N[C@H](C(=O)NCC(N)=O)CSCC(=O)N[C@@H](Cc2ccccc2)c2cnnn2[C@@H](C)C(=O)N[C@H](CC(N)=O)C(=O)N2CCC[C@H]2C(=O)N[C@@H](Cc2cnc[nH]2)C(=O)N[C@@H](CC(C)C)C(=O)N(C)CC(=O)N[C@@H](Cc2c[nH]c3ccccc23)C(=O)N[C@@H](CO)C(=O)N[C@@H](Cc2c[nH]c3ccccc23)C(=O)N(C)[C@@H](CCCC)C(=O)N1C (single isomer, unassigned) [Example 1004]
100 to 10000 nM | – | CCCC[C@H]1C(=O)N(C)CC(=O)N[C@@H](CC(=O)O)C(=O)N[C@@H](C(C)C)C(=O)N(C)[C@@H](Cc2ccccc2)C(=O)N[C@@H](Cc2ccc(O)cc2)C(=O)N(C)CC(=O)N[C@@H](Cc2c[nH]c3ccccc23)C(=O)N[C@@H](Cc2ccc(O)cc2)C(=O)N[C@@H](CC(C)C)C(=O)N[C@H](C(=O)NCC(N)=O)CSCC(=O)NC(Cc2ccccc2)c2nnnn2[C@@H](Cc2ccccc2)C(=O)N1C (single isomer, unassigned) [Example 3001]
100 to 10000 nM | – | CCCC[C@H]1C(=O)N(C)CC(=O)N[C@@H](CC(=O)O)C(=O)N[C@@H](C(C)C)C(=O)N(C)[C@@H](Cc2ccccc2)C(=O)N[C@@H](Cc2ccc(O)cc2)C(=O)N(C)CC(=O)N[C@@H](Cc2c[nH]c3ccccc23)C(=O)N[C@@H](Cc2ccc(O)cc2)C(=O)N[C@@H](CC(C)C)C(=O)N[C@H](C(=O)NCC(N)=O)CSCC(=O)NC(Cc2ccccc2)c2nnnn2[C@@H](Cc2ccccc2)C(=O)N1C (single isomer, unassigned) [Example 3002]
100 to 10000 nM | – | CCCC[C@H]1C(=O)N[C@H](CCCNC(=N)N)C(=O)N[C@@H](C(=O)NCC(N)=O)CSCC(=O)N[C@@H](Cc2ccccc2)C(=O)N(C)[C@@H](C)C(=O)N[C@@H](CC(N)=O)C(=O)N2CCC[C@H]2C(=O)N[C@@H](Cc2cnc[nH]2)C(=O)N[C@@H](CC(C)C)C(=O)N(C)CC(=O)N[C@@H](Cc2c[nH]c3ccccc23)C(=O)N[C@@H](CO)C(=O)N[C@@H](Cc2cccc3ccccc23)c2nnnn2[C@@H](CCCC)C(=O)N1C [Example 1005]
100 to 10000 nM | – | CCCC[C@H]1C(=O)NC(CCCNC(=N)N)C(=O)N[C@H](C(=O)NCC(N)=O)CSCC(=O)N[C@@H](Cc2ccc(O)cc2)C(=O)N(C)[C@@H](C)C(=O)N[C@@H](CC(N)=O)C(=O)N2CCC[C@H]2C(=O)N[C@@H](Cc2cnc[nH]2)C(=O)N[C@@H](CC(C)C)C(=O)N2CCC[C@H]2C(=O)N[C@@H](Cc2c[nH]c3ccccc23)C(=O)N[C@@H](CO)C(=O)N[C@@H](Cc2cccc3ccccc23)c2nnnn2[C@@H](CCCC)C(=O)N1C (stereo partly shown) [Example 1006]
100 to 10000 nM | – | CCCCC1C(=O)N(C)[C@@H](CCCC)C(=O)N[C@@H](CCCNC(=N)N)C(=O)N[C@H](C(=O)NCC(N)=O)CSCC(=O)N[C@@H](Cc2ccccc2)c2nnnn2[C@@H](C)C(=O)N[C@@H](CC(N)=O)C(=O)N2CCC[C@H]2C(=O)N[C@@H](Cc2cnc[nH]2)C(=O)N[C@@H](CC(C)C)C(=O)N(C)CC(=O)N[C@@H](Cc2c[nH]c3ccccc23)C(=O)N[C@@H](CO)C(=O)N[C@@H](Cc2cccc3ccccc23)c2nnnn21 (stereo partly shown) [Example 1007]
100 to 10000 nM | – | CCCC[C@H]1C(=O)N(C)[C@@H](CCCC)C(=O)N[C@@H](CCCNC(=N)N)C(=O)N[C@H](C(=O)NCC(N)=O)CSCC(=O)N[C@@H](Cc2ccccc2)c2nnnn2[C@@H](C)C(=O)N[C@@H](CC(N)=O)C(=O)N2CCC[C@H]2C(=O)N[C@@H](Cc2cnc[nH]2)C(=O)N[C@@H](CC(C)C)C(=O)N2CCC[C@H]2C(=O)N[C@@H](Cc2c[nH]c3ccccc23)C(=O)N[C@@H](CO)C(=O)N[C@@H](Cc2csc3ccccc23)C(=O)N1C [Example 1010] ({CH2CO}-[X5]NPHLPWS[Bta][NMeNle][NMeNle]RCG-NH2; thioether N-13)
– | 30 nM | CCCC[C@H]1C(=O)N(C)[C@@H](CCCC)C(=O)N[C@@H](CCCNC(=N)N)C(=O)N[C@H](C(=O)NCC(N)=O)CSCC(=O)N[C@@H](Cc2ccc(O)cc2)c2nnnn2[C@@H](C)C(=O)N[C@@H](CC(N)=O)C(=O)N2CCC[C@H]2C(=O)N[C@@H](Cc2cnc[nH]2)C(=O)N[C@@H](CC(C)C)C(=O)N(C)CC(=O)N[C@@H](Cc2c[nH]c3ccccc23)C(=O)N[C@@H](CO)C(=O)N[C@@H](Cc2c[nH]c3ccccc23)C(=O)N1C [Example 1012] ({CH2CO}-[Tyrψ(CN4)Ala]NPHL[Sar]WSW[NMeNle][NMeNle]RCG-NH2; thioether N-13)
10 to 99 nM | – | CCCC[C@H]1C(=O)N[C@@H](CCCN)C(=O)N[C@H](C(=O)NCC(N)=O)CSCC(=O)N[C@@H](Cc2ccc(O)cc2)C(=O)N(C)[C@@H](C)C(=O)N[C@@H](CC(N)=O)C(=O)N2CCC[C@H]2C(=O)N[C@@H](Cc2cnc[nH]2)C(=O)N[C@@H](CC(C)C)C(=O)N2C[C@H](O)C[C@H]2C(=O)N[C@@H](Cc2c[nH]c3ccccc23)C(=O)C[C@@H](CO)C(=O)N[C@@H](Cc2csc3ccccc23)c2nnnn2[C@@H](CCCC)C(=O)N1C [Example 1013] ({CH2CO}-Y[NMeA]NPHL[Hyp][X3][X4][NMeNle][Orn]CG-NH2; thioether N-12)
5 to 9.9 nM | – | CCCC[C@H]1C(=O)N(C)[C@@H](CCCC)C(=O)N[C@@H](CCCN)C(=O)N[C@H](C(=O)NCC(N)=O)CSCC(=O)N[C@@H](Cc2ccc(O)cc2)c2nnnn2[C@@H](C)C(=O)N[C@@H](CC(N)=O)C(=O)N2CCC[C@H]2C(=O)N[C@@H](CN)C(=O)N[C@@H](CC(C)C)C(=O)N2C[C@H](O)C[C@H]2C(=O)N[C@@H](Cc2c[nH]c3ccccc23)C(=O)N[C@@H](CO)C(=O)N[C@@H](Cc2c[nH]c3ccccc23)C(=O)N1C [Example 1014] ({CH2CO}-[Tyrψ(CN4)Ala]NP[Dap]L[Hyp]WSW[NMeNle][NMeNle][Orn]CG-NH2; thioether N-13)
